For five compounds, IC50, inhibition and Activity results are on record in ChEMBL document CHEMBL1152443, “Three adducts of butenolide and apigenin glycoside from the leaves of Machilus japonica” (J Nat Prod, 2009).

Usually IC50 stands for the concentration that inhibits the measured activity by half. A word on the inhibition: it is the percentage by which the read-out fell short of the control. A higher inhibition goes with a strong effect. One may read the pIC50 as −log10 of the IC50, conventionally taken in molar units.

pIC50: −log10 of the molar value. The source made the active and inactive calls. The rule behind the calls is not given here.

One assay has as its system PC-3. The assay can be described thus: Cytotoxicity against human PC3 cells. Format: functional, cell-based.
Assay [1] relates to Geobacillus stearothermophilus. Kind of assay: Inhibition of Bacillus stearothermophilus alpha-glucosidase type IV at 100ug/mL.
In assay [2] the test system is Geobacillus stearothermophilus. The assay can be described thus: Inhibition of Bacillus stearothermophilus alpha-glucosidase type IV at 10ug/mL.
A short description of assay [3]: Inhibition of Bacillus stearothermophilus alpha-glucosidase type IV. Also on record: species or system Geobacillus stearothermophilus.

`CCCCCCCCCC[C@@H]1c2c(c([C@@H]3O[C@H](CO)[C@@H](O)[C@H](O)[C@H]3O[C@@H]3O[C@@H](C)[C@H](O)[C@@H](O)[C@H]3O)c(O)c3c(=O)cc(-c4ccc(O)cc4)oc23)OO[C@@]12C(=O)O[C@H](C)C2=O` [APIGENOSYLIDE A] showed an IC50 in the assay with PC-3 above 30 µg/mL. In turn, `O=c1cc(-c2ccc(O[C@@H]3O[C@H](CO)[C@@H](O)[C@H](O)[C@H]3O)cc2)oc2cc(O)cc(O)c12` gave an inhibition in assay [1] of 18.7%. The result in assay [2] was inactive. In turn, `CCCCCCCCCC[C@@H]1c2c(cc(O)c3c(=O)cc(-c4ccc(O[C@@H]5O[C@H](CO)[C@@H](O)[C@H](O)[C@H]5O)cc4)oc23)OO[C@@]12C(=O)O[C@H](C)C2=O` returned an inhibition in assay [1] of 64.7%. In addition, the outcome in assay [2] was inactive. In assay [3], `C[C@H]1O[C@H](O[C@H]2[C@H](O)[C@@H](O)[C@@H](O[C@H]3[C@H](O)[C@@H](O)C(O)O[C@@H]3CO)O[C@@H]2CO)[C@H](O)[C@@H](O)[C@@H]1N[C@H]1C=C(CO)[C@@H](O)[C@H](O)[C@H]1O` (stereo partly drawn) [ACARBOSE] had a pIC50 of 7.48. `CCCCCCCC[C@@H]1c2c(c([C@@H]3O[C@H](CO)[C@@H](O)[C@H](O)[C@H]3O[C@@H]3O[C@@H](C)[C@H](O)[C@@H](O)[C@H]3O)c(O)c3c(=O)cc(-c4ccc(O)cc4)oc23)OO[C@@]12C(=O)O[C@H](C)C2=O`: the inhibition in assay [1] is 93.7%. In addition, in assay [2], the outcome was inactive.
